Measurements taken from patent US20110245104A1, “Method for screening the sensitizing properties of chemical compounds” (priority 2010, published 2011).

Legend:
[1] = system: anti-nuclear antibodies (ANA); assay: Anti-nuclear antibodies (ANA) in sera of mice topically exposed to haptens; type: in vivo; details: topical exposure
human skin excerpts = assay: Labeling of human skin excerpts by caged haptens
Description: The first step is that the molecules come into contact with the skin (the stratum corneum). Many of the reactive molecules react in the stratum corneum, something that can be seen in experiments with human skin excerpts and the caged (mBBr and dBBr) haptens. However, a significant proportion of the molecules penetrate further down to the suprabasal layers of the epidermis but also the follicular pathway is of importance for bringing xenobiotics into the skin. It is likely that the penetration is due both to the acidic pH of the stratum corneum (the molecules react more slowly when the pH is low), but also because many of the available groups have reacted. In the suprabasal layers, the haptens have a hard time penetrating the cells, as the cornification of the cells creates a thick, relatively impermeable envelope around the suprabasal cells. Consequently, the haptens penetrate down to the basal layer. Here, the cell membrane is much thinner and more fluidic and the molecules can thus enter the basal cells.

keratins = assay: Protein cross-linking by bidentate haptens (SDS gels of blebs); type: cell-based, human; details: bidentate hapten
Description: In SDS-PAGE experiments it was shown that thiol-, amine-, and arginine-reactive sensitizers give rise to blebs that contain the same proteins. […] It was also shown that the sensitizing compounds also modify other proteins and that these proteins are released in blebs, as visualized by fluorescent bands on SDS-gels.

[2] = system: serum amyloid P component (SAP); assay: Serum amyloid P component (SAP) in sera of mice exposed to sensitizers; type: in vivo; details: sera of mice exposed to sensitizer

Structure (SMILES): Cc1c(CBr)n2c(CBr)c(C)c(=O)n2c1=O [dBBr, dibromobimane]
- Level of anti-nuclear antibodies (ANA) in sera [1]: increased levels
- Labeling of cells in the basal layer (human skin excerpts): cells in the basal layer are labeled
- Cross-links between keratins (keratins): cause cross-links
- Level of serum amyloid P component (SAP) [2]: increased levels
